As usually defined, the IC50 is the midpoint of a concentration-inhibition curve. The low end stands for greater potency in that assay, the high end for weaker potency in that assay.

The target of the test is Serine/threonine-protein kinase B-raf [V600E] (Homo sapiens, UniProt P15056, V600E). Description: In Vitro Raf Activity.
Sequence of Serine/threonine-protein kinase B-raf [V600E] (P15056 2-766 V600E limits assumed): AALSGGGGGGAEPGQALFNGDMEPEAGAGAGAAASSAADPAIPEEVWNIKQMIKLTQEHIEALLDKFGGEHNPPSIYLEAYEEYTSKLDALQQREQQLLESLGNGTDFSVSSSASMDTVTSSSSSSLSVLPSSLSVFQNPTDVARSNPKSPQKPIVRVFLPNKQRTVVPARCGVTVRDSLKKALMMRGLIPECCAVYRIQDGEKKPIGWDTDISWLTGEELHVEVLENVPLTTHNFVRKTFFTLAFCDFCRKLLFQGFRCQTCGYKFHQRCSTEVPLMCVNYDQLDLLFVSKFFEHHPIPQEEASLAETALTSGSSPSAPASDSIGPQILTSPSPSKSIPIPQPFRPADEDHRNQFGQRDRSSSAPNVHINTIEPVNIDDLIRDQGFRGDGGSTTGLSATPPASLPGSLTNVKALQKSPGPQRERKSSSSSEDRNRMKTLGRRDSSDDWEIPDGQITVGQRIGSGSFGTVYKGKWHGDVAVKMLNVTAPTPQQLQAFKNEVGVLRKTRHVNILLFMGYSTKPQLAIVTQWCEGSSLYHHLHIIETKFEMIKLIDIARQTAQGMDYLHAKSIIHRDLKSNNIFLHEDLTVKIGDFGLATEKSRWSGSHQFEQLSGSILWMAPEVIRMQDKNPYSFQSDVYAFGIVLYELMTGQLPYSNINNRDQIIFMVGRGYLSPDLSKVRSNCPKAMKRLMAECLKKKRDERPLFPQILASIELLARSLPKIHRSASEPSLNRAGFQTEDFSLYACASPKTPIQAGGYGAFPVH
Experimental: The plate was incubated for 60 minutes at room temperature. […] The additions were carried out under dark conditions to protect the detection beads from light. A lid was placed on top of the plate and incubated for 1 hour at room temperature, then the luminescence was read on a PerkinElmer Envision instrument.
In turn, `Cc1ncc(NC(=O)c2ccnc(C(C)(C)C#N)c2)cc1-c1cc(N2CCOCC2)ncn1` [US10245267, Example 2] came in with an IC50 of 4.8 nM. The molecule `Cc1ncc(NC(=O)c2ccnc(C(F)(F)F)c2)cc1-c1cnc(OC2CNC2)c(N2CCOCC2)c1` [US10245267, Example 325] registered an IC50 of 300 nM. For `Cc1ncc(NC(=O)c2ccnc(C(F)(F)F)c2)cc1-c1cnc(C(C)(C)C#N)c(N2CCOCC2)c1` [US10245267, Example 326] the value was 3.7 nM. For `Cc1ncc(NC(=O)c2ccnc(C(F)(F)F)c2)cc1-c1cnc(CS(C)(=O)=O)c(N2CCOCC2)c1` [US10245267, Example 327] the value was 3.9 nM; for `CCOc1nnc(-c2cc(NC(=O)c3ccc(CN(C)CC)c(C(F)(F)F)c3)ccc2C)cc1N1CCOCC1` [US10245267, Example 576], 3.5 nM. For `Cc1ncc(NC(=O)c2ccc(C#N)c(C(F)(F)F)c2)cc1-c1cc(N2CCOCC2)c2nccn2n1` [US10245267, Example 877] the value was 6.5 nM. `Cc1ncc(NC(=O)c2cccc(C(F)F)c2)cc1-c1cc(N2CCOCC2)c2nccn2n1` [US10245267, Example 880]: the IC50 came to 3.2 nM. For `Cc1ncc(NC(=O)c2ccnc(C(C)(C)C#N)c2)cc1-c1cc(N2CCOCC2)c2nccn2n1` [US10245267, Example 881] the value was 32.6 nM.

These data come from BindingDB's records for patent US10245267 (Novartis, 2019).
